Results published in paper PMC6540952 (Chemical Science, 2019).

Molecular target: IP6K1 (Homo sapiens, UniProt Q92551)
Test: NMR kinase activity assay with [[…]6]InsP6, […] ATP
Assay type: biochemical

Chain of IP6K1 (Q92551 whole entry): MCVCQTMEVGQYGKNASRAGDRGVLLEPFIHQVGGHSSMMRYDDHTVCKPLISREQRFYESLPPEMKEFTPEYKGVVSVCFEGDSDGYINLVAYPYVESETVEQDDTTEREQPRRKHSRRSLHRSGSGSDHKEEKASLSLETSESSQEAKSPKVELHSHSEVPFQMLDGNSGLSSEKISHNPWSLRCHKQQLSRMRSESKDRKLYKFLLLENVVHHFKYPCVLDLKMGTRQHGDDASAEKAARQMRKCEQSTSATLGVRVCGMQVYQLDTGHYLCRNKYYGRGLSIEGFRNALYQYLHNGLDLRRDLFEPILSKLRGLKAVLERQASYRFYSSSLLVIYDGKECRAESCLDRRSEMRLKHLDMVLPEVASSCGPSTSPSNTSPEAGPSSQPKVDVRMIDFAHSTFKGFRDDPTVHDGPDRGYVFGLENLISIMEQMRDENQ

IC50: 2.25 µM
Compound: O=[N+]([O-])c1ccc(CNc2nc(NCc3cccc(C(F)(F)F)c3)nc3[nH]cnc23)cc1 [TNP]
